Reference: ChEMBL document CHEMBL1201862, “PubChem BioAssay data set” (2004)
Active and inactive are the calls of the source.

Legend:
[1] = A Cell Based Secondary Assay To Explore Cytotoxicity of Compounds that Sensitize Mycobacterium Tuberculosis to Beta-Lactam Antibiotics.; format: functional
[2] = molecular target: T1, DNA repair protein RAD52 homolog (Homo sapiens, UniProt P43351); format: functional, biochemical
T1 sequence (P43351 whole entry): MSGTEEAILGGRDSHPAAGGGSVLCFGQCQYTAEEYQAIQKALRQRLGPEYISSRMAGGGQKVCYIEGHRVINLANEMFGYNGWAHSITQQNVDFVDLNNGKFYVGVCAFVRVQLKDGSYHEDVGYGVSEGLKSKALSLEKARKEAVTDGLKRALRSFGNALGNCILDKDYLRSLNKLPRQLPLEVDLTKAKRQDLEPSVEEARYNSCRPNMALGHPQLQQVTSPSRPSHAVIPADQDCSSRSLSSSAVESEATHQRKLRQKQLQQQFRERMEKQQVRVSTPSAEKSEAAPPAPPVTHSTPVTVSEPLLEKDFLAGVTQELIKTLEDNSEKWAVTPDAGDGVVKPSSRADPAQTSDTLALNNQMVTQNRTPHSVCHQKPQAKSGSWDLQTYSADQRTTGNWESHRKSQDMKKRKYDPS

[3] = molecular target: Eukaryotic translation initiation factor 4E (Mus musculus, UniProt P63073); experiment: blockers of eIF4G binding by eIF4E – biochemical, TR-FRET, dose response (AID 855); format: functional;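 also: potency for disrupting eIF4E binding to eIF4GI seen as loss of FRET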
Chain of Eukaryotic translation initiation factor 4E (P63073 whole entry): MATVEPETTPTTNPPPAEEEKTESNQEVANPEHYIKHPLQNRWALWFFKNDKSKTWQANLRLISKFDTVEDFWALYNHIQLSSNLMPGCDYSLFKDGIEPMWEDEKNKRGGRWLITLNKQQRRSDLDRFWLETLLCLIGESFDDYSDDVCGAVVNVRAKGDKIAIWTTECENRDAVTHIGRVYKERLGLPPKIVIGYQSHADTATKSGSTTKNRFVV

[4] = molecular target: Heat shock protein HSP 90-alpha (Homo sapiens, UniProt P07900); format: functional, organism-based
[5] = molecular target: T2, Rac GTPase-activating protein 1 (Homo sapiens, UniProt Q9H0H5); experiment: blockers of MgcRacGAP-driven Rac1 GTP hydrolysis – biochemical, ADP Hunter fluorescence, primary and confirmatory, confirmation (AID 624330); format: functional
T2 sequence (Q9H0H5 whole entry): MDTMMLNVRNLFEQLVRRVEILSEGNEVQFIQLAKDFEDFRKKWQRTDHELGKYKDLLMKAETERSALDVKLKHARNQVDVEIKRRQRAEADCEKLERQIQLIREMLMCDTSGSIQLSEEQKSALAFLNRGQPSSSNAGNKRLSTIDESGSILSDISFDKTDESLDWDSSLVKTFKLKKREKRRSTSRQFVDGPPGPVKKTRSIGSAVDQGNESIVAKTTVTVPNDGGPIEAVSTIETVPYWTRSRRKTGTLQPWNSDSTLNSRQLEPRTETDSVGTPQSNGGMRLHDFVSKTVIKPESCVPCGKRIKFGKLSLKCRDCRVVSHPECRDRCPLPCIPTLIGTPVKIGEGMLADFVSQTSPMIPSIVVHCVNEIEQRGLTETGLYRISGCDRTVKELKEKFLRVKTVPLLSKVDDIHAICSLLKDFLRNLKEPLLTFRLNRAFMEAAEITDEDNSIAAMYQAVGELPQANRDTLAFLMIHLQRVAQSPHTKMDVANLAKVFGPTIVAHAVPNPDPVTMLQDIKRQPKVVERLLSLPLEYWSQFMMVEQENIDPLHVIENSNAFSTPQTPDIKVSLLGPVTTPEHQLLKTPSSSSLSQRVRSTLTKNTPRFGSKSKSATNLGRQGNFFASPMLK

[6] = viability loss in HeLa cells – cytotoxicity control for MgcRacGAP inhibitor project, dose response (AID 624300); format: functional
[7] = molecular target: Luciferin 4-monooxygenase (Photinus pyralis, UniProt P08659); experiment: inhibition of purified Photinus pyralis luciferase – biochemical, luminescence, dose response (AID 1891)
Chain of Luciferin 4-monooxygenase (P08659 whole entry): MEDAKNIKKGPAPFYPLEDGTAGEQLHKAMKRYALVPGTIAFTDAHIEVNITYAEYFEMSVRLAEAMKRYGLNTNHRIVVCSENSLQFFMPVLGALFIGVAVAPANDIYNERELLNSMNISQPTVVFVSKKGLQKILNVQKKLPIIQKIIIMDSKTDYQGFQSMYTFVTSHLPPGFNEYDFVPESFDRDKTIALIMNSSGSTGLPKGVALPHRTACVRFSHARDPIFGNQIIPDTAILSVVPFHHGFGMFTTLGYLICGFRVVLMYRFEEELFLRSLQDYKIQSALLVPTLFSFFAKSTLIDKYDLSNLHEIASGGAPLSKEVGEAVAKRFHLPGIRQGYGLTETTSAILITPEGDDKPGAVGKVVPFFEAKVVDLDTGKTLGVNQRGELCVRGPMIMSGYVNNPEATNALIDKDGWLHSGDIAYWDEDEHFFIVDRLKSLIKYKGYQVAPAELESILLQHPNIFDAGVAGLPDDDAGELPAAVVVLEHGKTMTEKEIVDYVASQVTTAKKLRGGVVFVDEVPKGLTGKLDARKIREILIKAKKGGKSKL

[8] = Luminescence Cell-Based Dose Confirmation HTS to Identify Inhibitors of Platelet Dense Granule Release. [Related pubchem assays: 1663 (Primary HTS), 1678 (Summary of Project)]; format: functional
cells [9] = experiment: cells
[10] = viability of uninfected HEp-2 cells – cell-based, HTS, cytotoxicity control for RSV inhibitor project, dose response (AID 2410); format: functional; details: human respiratory syncytial virus
[11] = NIH-3T3 fibroblast cytotoxicity, dose response, cytotoxicity control, cell-based, fluorescence, Alamar Blue, secondary assay (AID 2327); format: functional;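 also: NIH-3T3 mouse fibroblasts cultured with fluconazole at 8 µg/mL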
[12] = molecular target: T3, Ubiquitin-conjugating enzyme E2 N (Homo sapiens, UniProt P61088); format: functional;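 also: Dose-response confirmation in a TR-FRET assay detecting UBC13-driven polyubiquitin chain formation, inhibition measured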
T3 sequence (P61088 whole entry): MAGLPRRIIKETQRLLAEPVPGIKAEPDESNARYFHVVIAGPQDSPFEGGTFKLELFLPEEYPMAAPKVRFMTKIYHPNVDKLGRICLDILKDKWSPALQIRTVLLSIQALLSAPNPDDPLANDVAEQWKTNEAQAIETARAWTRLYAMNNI

Paired box protein Pax-8 = Paired box protein Pax-8 (Homo sapiens, UniProt Q06710); experiment: PAX8 transcriptional activity inhibition in RMG-I – RMG-I cells, luciferase, cherry-pick, dose response (AID 687027); format: functional, cell-based;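 also: luciferase reporter driven by Pax8 target thyroperoxidase promoter measured by SteadyGlo luminescence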
Chain of Paired box protein Pax-8 (Q06710 whole entry): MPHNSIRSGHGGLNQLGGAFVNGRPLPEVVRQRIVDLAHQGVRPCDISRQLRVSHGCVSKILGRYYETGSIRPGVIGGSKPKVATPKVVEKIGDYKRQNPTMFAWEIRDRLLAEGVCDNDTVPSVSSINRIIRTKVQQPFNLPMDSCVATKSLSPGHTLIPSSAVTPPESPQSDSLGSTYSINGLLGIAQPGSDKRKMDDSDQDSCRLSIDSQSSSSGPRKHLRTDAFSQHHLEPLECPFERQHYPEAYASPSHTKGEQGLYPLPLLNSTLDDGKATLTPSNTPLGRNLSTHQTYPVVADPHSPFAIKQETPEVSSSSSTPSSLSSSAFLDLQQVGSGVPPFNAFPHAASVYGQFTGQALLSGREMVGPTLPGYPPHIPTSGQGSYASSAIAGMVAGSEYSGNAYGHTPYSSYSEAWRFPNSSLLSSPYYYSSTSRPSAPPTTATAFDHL

[13] = molecular target: Nuclear receptor subfamily 5 group A member 2 (Homo sapiens, UniProt O00482); format: functional, cell-based;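 also: HEK293T cells transfected with LRH-1 and a StAR promoter luciferase reporter; potency for inhibitors that lower LRH-1 driven reporter light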
Chain of Nuclear receptor subfamily 5 group A member 2 (O00482 whole entry): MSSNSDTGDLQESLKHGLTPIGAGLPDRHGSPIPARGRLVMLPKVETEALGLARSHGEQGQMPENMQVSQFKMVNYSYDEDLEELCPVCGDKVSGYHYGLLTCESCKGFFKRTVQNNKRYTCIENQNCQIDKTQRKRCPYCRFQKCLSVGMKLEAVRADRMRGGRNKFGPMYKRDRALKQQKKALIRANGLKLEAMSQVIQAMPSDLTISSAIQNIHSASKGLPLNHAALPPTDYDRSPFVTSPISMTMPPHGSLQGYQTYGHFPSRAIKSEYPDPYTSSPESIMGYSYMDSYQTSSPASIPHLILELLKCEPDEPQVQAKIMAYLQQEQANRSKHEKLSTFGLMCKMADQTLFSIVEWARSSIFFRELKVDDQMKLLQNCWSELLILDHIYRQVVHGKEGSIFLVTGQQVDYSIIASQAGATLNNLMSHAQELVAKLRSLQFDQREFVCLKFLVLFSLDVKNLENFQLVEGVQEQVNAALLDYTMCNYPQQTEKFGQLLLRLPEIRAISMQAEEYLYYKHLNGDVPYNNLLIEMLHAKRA

[14] = nonselective StAR promoter luciferase inhibitors – cell-based, luminescence, luciferase reporter, counter-screen for LRH-1 inverse agonist project, dose response (AID 651969); format: functional
Steroidogenic factor 1 = Steroidogenic factor 1 (Homo sapiens, UniProt Q13285); experiment: Counterscreen for inverse agonists of the liver receptor homolog-1 (LRH-1; NR5A2): Luminescence-based cell-based high throughput dose response assay to identify inverse agonists of the Steroidogenic Factor 1 Nuclear Receptor (SF1; NR5A1).; format: functional
Chain of Steroidogenic factor 1 (Q13285 whole entry): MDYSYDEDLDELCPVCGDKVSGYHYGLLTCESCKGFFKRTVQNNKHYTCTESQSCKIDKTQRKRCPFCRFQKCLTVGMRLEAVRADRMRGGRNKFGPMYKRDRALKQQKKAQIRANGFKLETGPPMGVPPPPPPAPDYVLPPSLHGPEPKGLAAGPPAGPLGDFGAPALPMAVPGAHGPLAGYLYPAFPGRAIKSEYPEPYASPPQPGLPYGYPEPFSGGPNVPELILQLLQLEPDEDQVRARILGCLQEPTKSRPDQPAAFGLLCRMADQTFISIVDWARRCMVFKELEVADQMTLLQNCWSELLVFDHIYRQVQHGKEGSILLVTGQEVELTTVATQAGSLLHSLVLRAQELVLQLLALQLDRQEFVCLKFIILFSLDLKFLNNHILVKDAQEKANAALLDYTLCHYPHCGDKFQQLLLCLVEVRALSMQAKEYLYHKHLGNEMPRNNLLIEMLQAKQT

Protein RecA = molecular target: T4, Protein RecA (Mycobacterium tuberculosis, UniProt P9WHJ3); experiment: Fluorescence Cell-Free Homogeneous Dose Retest to Identify Inhibitors of RecA-Intein Splicing Activity. [Related pubchem assays (depositor defined):AID2097, AID2223, AID489010, AID492950]; format: functional
T4 sequence (P9WHJ3 whole entry): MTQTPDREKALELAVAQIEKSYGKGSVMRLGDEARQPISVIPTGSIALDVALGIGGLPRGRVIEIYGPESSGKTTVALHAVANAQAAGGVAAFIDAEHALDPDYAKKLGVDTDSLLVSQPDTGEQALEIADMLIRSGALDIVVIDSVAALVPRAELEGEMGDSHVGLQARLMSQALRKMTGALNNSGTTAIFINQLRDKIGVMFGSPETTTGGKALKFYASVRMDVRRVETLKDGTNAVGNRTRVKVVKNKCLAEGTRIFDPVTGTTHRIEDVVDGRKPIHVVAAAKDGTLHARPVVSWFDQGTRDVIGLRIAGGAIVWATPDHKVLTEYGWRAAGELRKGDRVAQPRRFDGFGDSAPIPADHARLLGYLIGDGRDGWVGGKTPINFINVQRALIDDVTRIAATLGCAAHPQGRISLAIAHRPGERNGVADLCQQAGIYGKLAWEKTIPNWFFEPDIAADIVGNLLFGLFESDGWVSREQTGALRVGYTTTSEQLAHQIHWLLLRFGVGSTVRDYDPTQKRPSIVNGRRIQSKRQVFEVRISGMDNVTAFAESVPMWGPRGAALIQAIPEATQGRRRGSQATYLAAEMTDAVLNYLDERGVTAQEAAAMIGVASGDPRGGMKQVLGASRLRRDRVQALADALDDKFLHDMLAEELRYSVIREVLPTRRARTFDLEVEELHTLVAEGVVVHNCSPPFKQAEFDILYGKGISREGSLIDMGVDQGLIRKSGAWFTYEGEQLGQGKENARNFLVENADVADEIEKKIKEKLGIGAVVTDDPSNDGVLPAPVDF

[15] = molecular target: T5, Replicative DNA helicase DnaB (Mycobacterium tuberculosis, UniProt P9WMR3); experiment: DnaB intein splicing inhibitors, dose response, biochemical, cell-free fluorescence (AID 449749); format: functional
T5 sequence (P9WMR3 whole entry): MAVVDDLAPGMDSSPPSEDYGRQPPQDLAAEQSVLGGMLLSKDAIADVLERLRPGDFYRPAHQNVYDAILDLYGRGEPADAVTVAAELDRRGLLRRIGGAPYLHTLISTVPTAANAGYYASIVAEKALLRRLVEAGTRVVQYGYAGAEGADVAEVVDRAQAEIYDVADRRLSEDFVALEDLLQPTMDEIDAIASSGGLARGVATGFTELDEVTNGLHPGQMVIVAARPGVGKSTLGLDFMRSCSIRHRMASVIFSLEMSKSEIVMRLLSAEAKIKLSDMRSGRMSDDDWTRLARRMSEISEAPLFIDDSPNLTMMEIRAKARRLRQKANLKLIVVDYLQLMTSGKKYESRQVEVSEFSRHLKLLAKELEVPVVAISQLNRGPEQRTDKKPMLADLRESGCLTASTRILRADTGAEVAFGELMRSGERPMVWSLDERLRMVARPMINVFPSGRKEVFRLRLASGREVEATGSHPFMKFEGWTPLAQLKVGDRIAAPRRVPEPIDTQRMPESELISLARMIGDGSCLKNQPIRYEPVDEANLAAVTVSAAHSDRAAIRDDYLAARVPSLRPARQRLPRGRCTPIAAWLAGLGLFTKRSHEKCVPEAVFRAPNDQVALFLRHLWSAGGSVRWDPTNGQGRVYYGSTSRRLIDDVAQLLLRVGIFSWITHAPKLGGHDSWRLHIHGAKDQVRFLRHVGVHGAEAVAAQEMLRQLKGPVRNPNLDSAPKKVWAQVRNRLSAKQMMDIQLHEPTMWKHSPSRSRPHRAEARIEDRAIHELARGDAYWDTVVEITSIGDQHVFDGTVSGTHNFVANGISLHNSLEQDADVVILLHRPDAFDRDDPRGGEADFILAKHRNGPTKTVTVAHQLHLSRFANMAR

[16] = molecular target: T6, Microphthalmia-associated transcription factor (Homo sapiens, UniProt O75030); experiment: reducers of TRPM1 reporter luminescence, concentration series – cell-based, SK-MEL-5, cherry-picked, set 3, MITF inhibitor project, dose response (AID 493073); format: functional;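 also: SK-MEL-5 melanoma cells with luciferase driven by the MITF target TRPM1 promoter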
T6 sequence (O75030 whole entry): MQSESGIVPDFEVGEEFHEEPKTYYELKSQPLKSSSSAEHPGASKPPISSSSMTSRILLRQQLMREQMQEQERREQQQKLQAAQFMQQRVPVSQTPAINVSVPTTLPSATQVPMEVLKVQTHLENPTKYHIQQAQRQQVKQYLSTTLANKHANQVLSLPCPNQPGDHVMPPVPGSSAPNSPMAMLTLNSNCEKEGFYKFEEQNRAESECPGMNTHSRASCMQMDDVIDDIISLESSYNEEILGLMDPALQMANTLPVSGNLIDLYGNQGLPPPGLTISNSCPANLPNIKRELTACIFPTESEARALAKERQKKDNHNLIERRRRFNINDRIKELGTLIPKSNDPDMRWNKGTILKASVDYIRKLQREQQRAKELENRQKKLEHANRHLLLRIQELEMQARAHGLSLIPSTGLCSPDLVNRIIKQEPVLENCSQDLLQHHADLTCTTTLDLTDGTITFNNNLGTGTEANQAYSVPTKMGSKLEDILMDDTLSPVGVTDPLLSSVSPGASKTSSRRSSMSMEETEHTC

Large T antigen = Large T antigen (Simian virus 40, UniProt P03070); format: functional, Betapolyomavirus macacae;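 also: Confirmatory-stage PubChem screen for compounds that inhibit SV40 T antigen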
Chain of Large T antigen (P03070 whole entry): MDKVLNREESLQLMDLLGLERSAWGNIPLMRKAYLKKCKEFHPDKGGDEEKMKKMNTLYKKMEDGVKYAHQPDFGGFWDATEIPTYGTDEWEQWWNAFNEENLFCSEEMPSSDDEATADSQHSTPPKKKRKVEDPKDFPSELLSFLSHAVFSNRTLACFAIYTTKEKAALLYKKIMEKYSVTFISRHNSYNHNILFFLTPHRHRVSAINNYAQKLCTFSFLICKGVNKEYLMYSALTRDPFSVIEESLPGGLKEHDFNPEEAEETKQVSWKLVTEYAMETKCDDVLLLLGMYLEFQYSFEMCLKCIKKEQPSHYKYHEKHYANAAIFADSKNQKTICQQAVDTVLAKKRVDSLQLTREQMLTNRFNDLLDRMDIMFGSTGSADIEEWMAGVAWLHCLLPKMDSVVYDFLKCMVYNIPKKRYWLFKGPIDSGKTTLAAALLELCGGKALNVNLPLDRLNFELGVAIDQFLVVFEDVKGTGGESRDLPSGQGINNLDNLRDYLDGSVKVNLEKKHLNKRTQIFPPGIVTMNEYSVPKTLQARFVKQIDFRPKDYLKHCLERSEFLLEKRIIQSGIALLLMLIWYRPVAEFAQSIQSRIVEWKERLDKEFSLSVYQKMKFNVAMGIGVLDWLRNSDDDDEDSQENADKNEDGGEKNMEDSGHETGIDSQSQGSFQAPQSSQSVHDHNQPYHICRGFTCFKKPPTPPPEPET

Nonstructural protein 1 = Nonstructural protein 1 (Influenza A virus, UniProt Q194T2); format: functional, Influenza A virus (A/California/07/2009(H1N1))
Chain of Nonstructural protein 1 (Q194T2 whole entry): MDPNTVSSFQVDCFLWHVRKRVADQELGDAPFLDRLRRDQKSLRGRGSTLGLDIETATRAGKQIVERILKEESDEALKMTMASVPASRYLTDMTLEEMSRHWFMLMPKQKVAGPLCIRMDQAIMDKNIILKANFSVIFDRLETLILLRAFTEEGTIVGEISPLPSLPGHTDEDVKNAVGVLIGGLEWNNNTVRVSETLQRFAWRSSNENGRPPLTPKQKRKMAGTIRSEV

cells [17] = format: functional, cell-based
[18] = fluconazole-exposed Candida albicans growth modulators – fluorescence, retest, confirmation (AID 2467); format: functional, cell-based
cells [19] = format: functional, cell-based; remark: listed apart in the source

SMILES: O=C(N/N=C/c1cc([N+](=O)[O-])ccc1O)C1CC1
- CC50 [1]: > 40 µM (active)

SMILES: COc1ccc2c(c1O)-c1cccc3c1[C@@H](C2)N(C)CC3
- AC50 [2]: 10.7 µM (active)

SMILES: COc1cc2nc(N(CCCN(C)C)C(=O)c3ccc(C(=O)c4ccccc4)cc3)sc2cc1OC
- AC50 [2]: 15.8 µM (active)

SMILES: Cc1ccc(C(=O)CSc2ncnc3sc4c(c23)CCCC4)cc1
- IC50 [3]: > 64 µM (inactive)

SMILES: CCCS(=O)(=O)N1CCN(S(=O)(=O)c2ccccc2)CC1
- IC50 [3]: > 64 µM (inactive)

SMILES: O=C(Nc1cccc(Cl)c1N1CCOCC1)c1ccc([N+](=O)[O-])o1
- CC50 [1]: > 40 µM (active)

SMILES: CCN1/C(=C/c2ccc3cc(C)ccc3[n+]2CC)Sc2cc(C)ccc21
- AC50 [4]: 3.75 µM (active)
- IC50 [5]: 80.4 µM (active)
- CC50 [6]: 23.1 µM (active)

SMILES: CCOc1ccccc1CN(CCc1ccc2c(c1)OCO2)Cc1ccccn1
- IC50 [5]: 172 µM (active)
- EC50 [7]: > 112 µM (not active)
- EC50 [8]: > 112 µM (not active)
- CC50 [6]: 100 µM (active)

SMILES: Cc1cccc(C)c1-n1c(C)cc(/C=C2\C(=O)NN(c3ccccc3)C2=O)c1C
- IC50 (cells [9]): 7.55 µM (active)
- CC50 [10]: 36.6 µM (active)
- CC50 [1]: > 40 µM (active)

SMILES: CC(C)c1ccc(CN2CCC(C(=O)NCc3cccnc3)CC2)cc1
- IC50 [3]: > 64 µM (inactive)

SMILES: NC1=NC[C@H](Cc2ccc(O)cc2)N1CCC12CC3CC(CC(C3)C1)C2
- EC50 [11]: > 160 µM (inactive)
- AC50 [2]: 18.5 µM (active)
- IC50 [12]: > 20 µM (inactive)

SMILES: CN(C)CCOc1ccc2c(c1)C(=O)C(=Cc1ncc([N+](=O)[O-])n1C)C2
- AC50 (Paired box protein Pax-8): 1.89 µM (active)
- AC50 [2]: 7.08 µM (active)

SMILES: O=C(NN1CCOCC1)c1cc(-c2ccc(Br)cc2)nc2ccccc12
- IC50 [3]: > 64 µM (inactive)

SMILES: CCN(CC)CC(O)Cn1c(C)c(-c2ccccc2)c2cc([N+](=O)[O-])ccc21 (stereo not given)
- AC50 [2]: 8.3 µM (active)

SMILES: NS(=O)(=O)c1ccc(O)c(NC(=O)c2ccc([N+](=O)[O-])o2)c1
- IC50 [13]: 4.16 µM (active)
- IC50 [14]: 35.9 µM (inactive)
- CC50 [1]: > 40 µM (active)
- IC50 (Steroidogenic factor 1): 1.52 µM (active)

SMILES: COC1=C(Nc2ccc(O)cc2)C(=O)c2ccccc2C1=O
- EC50 (Protein RecA): 1.16 µM (active)
- AC50 [15]: > 380 µM (inactive)
- IC50 [5]: 24.4 µM (active)
- AC50 [16]: 5.14 µM (active)
- IC50 (Large T antigen): 9.88 µM (active)
- IC50 (Nonstructural protein 1): 24.7 µM (active)
- CC50 [6]: 56.8 µM (active)

SMILES: CCN(CC)S(=O)(=O)c1ccc(N/N=C(\C)c2ccc(OC)cc2O)nc1
- EC50 (cells [17]): > 350 µM (not active)
- EC50 [11]: 5.47 µM (active)
- EC50 [18]: > 38 µM (not active)
- CC50 [1]: 3.86 µM (active)
- EC50 (cells [19]): 29.1 µM (active)
